Results: article PMC12775434, “Ultra-large virtual screening unveils potent agonists of the neuromodulatory orphan receptor GPR139” (Nature Communications, 2025)
Values joined by “and” are separate entries in the source; they are usually repeats but may differ in a detail not shown here. Identical values can stand only once. Like-named read-outs stand apart in the source and are kept apart here.

Tests used:
Type in all cases: cell-based
GPR139 [1] = target: T1, GPR139 (Homo sapiens, UniProt Q6DWJ6); assay: Ca2+ mobilization assay, antagonist mode (EC80 800 nM Lundbeck Cmp 1a after 20 min preincubation), GPR139-CHOk1; details: individual replicates (Supplementary Figure 4)
T1 sequence (Q6DWJ6 1-353): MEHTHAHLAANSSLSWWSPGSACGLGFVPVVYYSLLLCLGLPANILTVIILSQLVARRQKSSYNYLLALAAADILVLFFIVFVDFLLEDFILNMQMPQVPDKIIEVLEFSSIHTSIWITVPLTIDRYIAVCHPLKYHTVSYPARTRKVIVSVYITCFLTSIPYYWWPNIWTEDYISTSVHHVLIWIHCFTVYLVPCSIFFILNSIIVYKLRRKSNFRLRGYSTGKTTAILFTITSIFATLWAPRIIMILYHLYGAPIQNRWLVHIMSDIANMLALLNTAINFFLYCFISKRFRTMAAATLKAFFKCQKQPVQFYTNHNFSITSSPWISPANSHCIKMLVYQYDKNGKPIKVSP
In short: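 Fluo-4-loaded GPR139-CHOk1 cells in HEPES-buffered HBSS (pH 7.4, 2.5 mM probenecid) given test compounds at 10 µM, then after 20 min challenged with 800 nM Lundbeck Cmp 1a (EC80). Calcium fluorescence read at 37 °C, 485/525 nm.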

GPR139 [2] = target: T1, GPR139; assay: Ca2+ mobilization assay, agonist mode, stable GPR139-CHOk1 cell line; details: for Emax: normalized to Lundbeck Cmp 1a, read-out: Emax (%) Ca2+
In short: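 Agonist activity of compounds is assessed in stably transfected CHO-K1 cells using the calcium dye Fluo-4 at 37 °C in HEPES-buffered HBSS (pH 7.4). Efficacy is expressed relative to the reference agonist Lundbeck Cmp 1a, set as 100%.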

[3] = target: T2, human muscarinic acetylcholine M1 receptor (M1R) (Homo sapiens, UniProt P11229); assay: Ca2+ mobilization counter-screen in M1R-CHOk1 cells; details: individual replicates (Supplementary Figure 5)
T2 sequence (P11229 1-460): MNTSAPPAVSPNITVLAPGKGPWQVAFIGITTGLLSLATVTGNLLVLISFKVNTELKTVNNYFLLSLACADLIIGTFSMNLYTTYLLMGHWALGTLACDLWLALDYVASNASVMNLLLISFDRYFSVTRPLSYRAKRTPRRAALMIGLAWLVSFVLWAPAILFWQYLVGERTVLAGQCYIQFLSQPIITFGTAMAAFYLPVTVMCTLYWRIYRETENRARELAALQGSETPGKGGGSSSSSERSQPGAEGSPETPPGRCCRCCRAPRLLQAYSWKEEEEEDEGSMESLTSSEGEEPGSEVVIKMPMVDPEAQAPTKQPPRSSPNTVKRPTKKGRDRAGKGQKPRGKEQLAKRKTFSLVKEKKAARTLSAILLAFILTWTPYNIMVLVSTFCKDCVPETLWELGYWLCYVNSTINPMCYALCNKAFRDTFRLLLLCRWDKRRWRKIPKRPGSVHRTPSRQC
Protocol: Primary screening and pharmacological characterization of compounds were performed using a CHO-K1 cell line that stably expresses human GPR139 (GPR139-CHOk1). The GPR139-CHOk1 cell line was kindly provided by H. Lundbeck A/S, Denmark[24]. GPR139-CHOk1 cells were grown in Ham’s F-12 Kaighn’s Modification Medium (ThermoFisher #21127030) supplemented with 10% dialyzed fetal bovine serum (US origin, ThermoFisher #26400044), 100 units/mL Penicillin-Streptomycin (ThermoFisher #15140122), and 1 mg/mL Geneticin (ThermoFisher #11811031). […] M1R-CHOk1 cells were purchased from The Missouri S&T cDNA Resource Center (#CEM100TN00). M1R-CHOk1 cells were grown in Ham’s F12 Medium (ThermoFisher #21765029) supplemented with 10% fetal bovine serum (Brazilian origin, ThermoFisher #10270106), 100 units/mL Penicillin-Streptomycin, and 0.25 mg/mL Geneticin. HEK293A cells transiently transfected with GPR139 were used for additional pharmacological assessment of signaling pathways activated by GPR139. HEK239A cells were generously provided by Dr. Asuka Inoue, Tohoku University, Japan. HEK293A cells were grown in Dulbecco’s Modified Eagle Medium (ThermoFisher #31966047) supplemented with 10% dialyzed fetal bovine serum and 100 units/mL Penicillin-Streptomycin. Cell lines were maintained at 37 °C in humidified incubator equilibrated with 5% CO2.
30,000 GPR139- or M1R-CHOk1 cells/well were seeded in black clear bottom tissue culture treated 96-well plates (Greiner #655090) and grown for 20–24 h. Cells were washed with HEPES buffer (Hank’s Balanced Salt Solution (HBBS) supplemented with 20 mM HEPES, 1 mM MgCl2, and 1 mM CaCl2; pH 7.4). Cells were loaded with 50 µL of 2 µM Fluo-4 AM dye (ThermoFisher #F14202) in HEPES buffer supplemented with 2.5 mM probenecid and 0.01% Pluronic F-68 (ThermoFisher #24040032) for 1 h at 37 °C. Cells were washed with HEPES buffer. 50 µL HEPES buffer supplemented with 2.5 mM probenecid was added, and the cells were incubated for 10 min at 37 °C before measurement. 50 µL test compounds diluted in HEPES buffer from DMSO stocks (final DMSO concentration of maximally 0.3%) were added automatically after baseline measurements. The intracellular calcium mobilization was measured on a FlexStation 3 Multimode Microplate Reader (Molecular Devices) at 37 °C with filters for excitation of 485 nm and emission of 525 nm.

[4] = Agonist mode, individual replicates (Supplementary Figure 4)
[5] = Supplementary Table 2, mean ± SEM
[6] = log [Compound] M = -4.5, individual replicate columns
[7] = log [Compound] M = -5.0, individual replicate columns
[8] = log [Compound] M = -5.5, individual replicate columns
[9] = log [Compound] M = -6.0, individual replicate columns
[10] = log [Compound] M = -6.5, individual replicate columns
[11] = log [Compound] M = -7.0, individual replicate columns
[12] = log [Compound] M = -7.5, individual replicate columns
[13] = log [Compound] M = -8.0, individual replicate columns
[14] = log [Compound] M = -8.5, individual replicate columns
[15] = log [Compound] M = -9.0, individual replicate columns

EC50 (GPR139 [2]; GPR139-CHOk1, read-out: EC50, Ca2+ mobilization) [nM] | Emax (GPR139 [2]; [5]) [%] | fold decrease in potency relative to parent compound 1 (GPR139 [2]; Ca2+ mobilization EC50) | EC50 (GPR139 [2]; Supplementary Table 2, mean ± SEM, read-out: pEC50 Ca2+ (converted)) [nM] | Structure (SMILES) | Ca2+ signal (% of Cmp 1a) (GPR139 [1]) | Ca2+ signal (% of Cmp 1a) (GPR139 [2]; [4]) | Ca2+ signal (% of Cmp 1a) (GPR139 [2]; [6]) | Ca2+ signal (% of Cmp 1a) (GPR139 [2]; [7]) | Ca2+ signal (% of Cmp 1a) (GPR139 [2]; [8]) | Ca2+ signal (% of Cmp 1a) (GPR139 [2]; [9]) | Ca2+ signal (% of Cmp 1a) (GPR139 [2]; [10]) | Ca2+ signal (% of Cmp 1a) (GPR139 [2]; [11]) | Ca2+ signal (% of Cmp 1a) (GPR139 [2]; [12]) | Ca2+ signal (% of Cmp 1a) (GPR139 [2]; [13]) | Ca2+ signal (% of Cmp 1a) (GPR139 [2]; [14]) | Ca2+ signal (% of Cmp 1a) (GPR139 [2]; [15]) | Ca2+ signal (% of Carbachol) [3]
400 | 89 ± 15 |  |  | Cc1ccc(-c2nc(CC(=O)NC(C)c3ccccc3)no2)cc1 (stereo not shown) [Compound 1.14, CC(C1=CC=CC=C1)NC(CC2=NOC(C3=CC=C(C)C=C3)=N2)=O] | 7 % of Cmp 1a and -0.667 % of Cmp 1a and 13 % of Cmp 1a | 71 % of Cmp 1a and 82 % of Cmp 1a and 46 % of Cmp 1a | 97 % of Cmp 1a and 92 % of Cmp 1a and 89 % of Cmp 1a and 44 % of Cmp 1a | 79 % of Cmp 1a and 86 % of Cmp 1a and 77 % of Cmp 1a and 48 % of Cmp 1a | 61 % of Cmp 1a and 79 % of Cmp 1a and 69 % of Cmp 1a and 48 % of Cmp 1a | 61 % of Cmp 1a and 52 % of Cmp 1a and 58 % of Cmp 1a and 40 % of Cmp 1a | 42 % of Cmp 1a and 32 % of Cmp 1a and 38 % of Cmp 1a and 28 % of Cmp 1a | 17 % of Cmp 1a and 12 % of Cmp 1a and 27 % of Cmp 1a and 22 % of Cmp 1a | 5.33 % of Cmp 1a and 7 % of Cmp 1a and 30 % of Cmp 1a and -6 % of Cmp 1a | 12 % of Cmp 1a and 2.67 % of Cmp 1a (2×) and 0.667 % of Cmp 1a | -1.67 % of Cmp 1a and -4 % of Cmp 1a and 1.67 % of Cmp 1a | 8 % of Cmp 1a and 10 % of Cmp 1a and -3.67 % of Cmp 1a and 1 % of Cmp 1a | -9 % of Carbachol and -1 % of Carbachol and 10 % of Carbachol
 | 105 ± 4 | 3- to 25 fold | 501 | Cc1nc(-c2nc(CC(=O)NC(C)c3ccccc3)no2)cs1 (stereo not shown) [Compound 1.15, CC(C1=CC=CC=C1)NC(CC2=NOC(C3=CSC(C)=N3)=N2)=O] | 7 % of Cmp 1a and 2.33 % of Cmp 1a | 96 % of Cmp 1a and 108 % of Cmp 1a and 104 % of Cmp 1a | 94 % of Cmp 1a and 99 % of Cmp 1a and 118 % of Cmp 1a and 102 % of Cmp 1a | 101 % of Cmp 1a and 90 % of Cmp 1a and 112 % of Cmp 1a and 100 % of Cmp 1a | 104 % of Cmp 1a and 84 % of Cmp 1a and 109 % of Cmp 1a and 112 % of Cmp 1a | 70 % of Cmp 1a and 62 % of Cmp 1a and 81 % of Cmp 1a and 93 % of Cmp 1a | 46 % of Cmp 1a (2×) and 31 % of Cmp 1a and 57 % of Cmp 1a | 12 % of Cmp 1a and 11 % of Cmp 1a and 21 % of Cmp 1a and 17 % of Cmp 1a | 8 % of Cmp 1a and -0.333 % of Cmp 1a and 13 % of Cmp 1a and 5.67 % of Cmp 1a | 1.67 % of Cmp 1a and -3.67 % of Cmp 1a and 8 % of Cmp 1a and -2 % of Cmp 1a | 1 % of Cmp 1a and 15 % of Cmp 1a and 11 % of Cmp 1a and 10 % of Cmp 1a | 0.667 % of Cmp 1a and 7 % of Cmp 1a (2×) and 12 % of Cmp 1a | 3 % of Carbachol and 14 % of Carbachol
